{"source": "patent US20260335288A1", "about": "“Pharmacologic Targeting of Genetic Factors That Control Jet Lag” (University of Pittsburgh-Of the Commonwealth System of …, priority 2022, published 2026)", "key": {"[1]": {"system": "human pulmonary artery endothelial cells (PAECs)", "assay": "Caspase-Glo 3/7 apoptosis assay in human pulmonary artery endothelial cells", "assay_type": "cell-based", "conditions": "compound 173 treatment, 5 mM (so in the source), FIG. 5 panels A & D", "protocol": "(§1) Cell Culture. Primary human pulmonary artery endothelial cells (HPAECs) or mouse fibroblasts harboring a luciferase reporter under the control of a Period 2 (PER2) promoter (MF-Luc) were seeded into tissue culture dishes (Perkin Elmer) in a humidified incubator at 37 °C and 5% CO2. For knockdown experiments, cells were pre-treated with 20 nM “Silencer Select” scrambled silencing RNA (siNC) or with antisense targeting of Np/(siNPL) for 48 hours (ThermoFisher). For chemical treatments, cells were treated with vehicle (DMSO) or 5 mM 173.\nApoptosis. Apoptosis was measured using the Caspase-Glo 3/7 Assay System (Promega) according to the manufacturer's instructions."}, "[2]": {"system": "human pulmonary artery endothelial cells (PAECs)", "assay": "BrdU cell proliferation assay in human pulmonary artery endothelial cells", "assay_type": "cell-based", "conditions": "compound 173 treatment, 5 mM (so in the source), FIG. 5 panels B & E", "protocol": "as §1\nCell Proliferation. Cell proliferation was measured using the BrdU Cell Proliferation Assay Kit (Cell Signaling Technologies) according to the manufacturer's instructions."}, "MF-Luc cells": {"system": "MF-Luc cells", "assay": "Lumicycle recording of circadian period in MF-Luc cells (PER2 promoter luciferase reporter)", "assay_type": "cell-based, mouse", "conditions": "compound 173 treatment, 5 mM (so in the source), recorded 7 days, FIG. 4 and FIG. 5 panels C & F", "protocol": "as §1\nLumicycle Recording. Prior to circadian measurement, cells were synchronized with […] forskolin (Sigma) in Dulbecco's Modified Eagle Medium (DMEM) supplemented with 0.1% fetal bovine serum, and 100 mM Beetle luciferin (Promega) luciferase substrate was added for bioluminescent recording. Culture dishes were then sealed with sterile vacuum grease and placed in the Lumicycle 96 (Actimetrics) in a dehumidified incubator at 37 °C. Luminescence was recorded continuously for 7 days, and the initial 12 hours of data was omitted from the analysis to allow time for cell synchronization. […] Period was calculated as 2p/w. Period was analyzed if the R^2 was greater than 0.8."}}}
{"smiles": "Cc1ccc(-c2n[nH]c3c2C2(C(=O)N(C)c4ccccc42)N(C)C3=O)c(O)c1", "note": "(stereo not shown) [Compound 173]", "values": [{"measurement": "Apoptosis", "setting": "[1]", "result": "increased"}, {"measurement": "Proliferation", "setting": "[2]", "result": "decreased"}, {"measurement": "Circadian period length", "setting": "MF-Luc cells", "result": "decreased"}, {"measurement": "Circadian period length", "setting": "MF-Luc cells; listed as compound 173", "result": "significantly decreased"}]}
